According to patent publication US20250066794A1, “Application of PRDX5 and GPX4 Genes in Preparation of Drugs for Castration-resistant Prostate Cancer” (Jiangnan University, priority 2023, published 2025):

Legend:
[1] = system: C-MYC (Hi-Myc)-overexpressing and spontaneous prostate cancer mouse model; assay: C-MYC (Hi-Myc)-overexpressing spontaneous prostate cancer mouse model, ENZ gavage before resistance; format: in vivo
Experimental: (§1) A C-MYC (Hi-Myc)-overexpressing and spontaneous prostate cancer mouse model was constructed. mPIN/Cancer transition was developed in mice at the age of 4 months, at which time the mice were randomly grouped into NC control group (gavaged with solvent) and ENZ administration group. The ENZ administration group was given 10 mg/Kg ENZ by gavage every three days for a total of 30 days, and then some of the mice were sacrificed by cervical dislocation and their prostates were taken for photographing and weighing. […] Afterwards, the rest of the mice continued to be administrated according to the above method for 60 days. A recurrence was found in the ENZ group, and the CRPC mice were successfully obtained. Afterwards, the mice (i.e., mice at the age of 7 months) were randomly grouped into NC control group (continuously gavaged with solvent), ENZ single drug group, nucleic acid drug siPRDX5-1 group, ENZ and siPRDX5-1 co-administration group, nucleic acid drug siPRDX5-16 group, ENZ and siPRDX5-16 co-administration group, nucleic acid drug siGPX4-1 group, ENZ and siGPX4-1 co-administration group, nucleic acid drug siGPX4-16 group, ENZ and siGPX4-16 co-administration group, nucleic acid drugs siPRDX5-16+siGPX4-16 group, and ENZ and siPRDX5-16+siGPX4-16 co-administration group. The corresponding administrations were performed. […]

[2] = system: MyC-CaP-DTP cells; assay: CCK8 cell survival, MyC-CaP-DTP cells; format: cell-based, mouse
Experimental: (§2) Further, drug-resistant LNCaP-DTP and MyC-CaP-DTP cells as well as 22Rv1 cells which are themselves ENZ-resistant were transfected with the modified #3-siPRDX5-1-16 or #3-siGPX4-1-16 or #3-siPRDX5-1-16+#3-siGPX4-1-16 synthesized in Example 3 through a CCK8 method, illustrating the in vitro antitumor effects of nucleic acid drugs in drug-resistant cells.
(§3) The drug-resistant LNCaP-DTP and MyC-CaP-DTP cells as well as 22Rv1 cells which are themselves ENZ-resistant were seeded in a 96-well plate containing fresh 1640 medium and attached. Subsequently, 1 to 16 siPRDX5, siGPX4, siPRDX5+siGPX4, and negative control si-neg were added, and the transfection mixture was sucked out after successful interference. The medium was replaced with a normal complete medium (1640 medium containing 10% fetal bovine serum and 1% double antibody) and continued to be cultured in the incubator for 24 h. Finally, a CCK8 assay was performed for determination and the cell survival was calculated by OD450 value.

[3] = system: PRDX5 enzyme activity; assay: PRDX5 enzyme activity in prostate tissue of CRPC mice (thioredoxin system); format: in vivo, mouse; conditions: administration for 30 days, ENZ 10 mg/Kg gavage, siRNA 100 nM tail vein injection
Experimental: A C-MYC (Hi-Myc)-overexpressing and spontaneous prostate cancer mouse model was constructed. mPIN/Cancer transition was developed in mice at the age of 4 months, at which time the mice were randomly grouped into NC control group (gavaged with solvent) and ENZ administration group. The ENZ administration group was given 10 mg/Kg ENZ by gavage every three days for a total of 30 days, and then some of the mice were sacrificed by cervical dislocation and their prostates were taken for photographing and weighing. […] Afterwards, the rest of the mice continued to be administrated according to the above method for 60 days. A recurrence was found in the ENZ group, and the CRPC mice were successfully obtained. […]
Assay for PRDX5 enzyme activity: the PRDX5 enzyme activity was determined using the thioredoxin system. Specifically, the rate of H2O2 degradation was measured by detecting the reduction of A340 caused by NADPH oxidation. […]

[4] = system: CRPC mice; assay: Drug-resistant CRPC formed by continuous ENZ in C-MYC-overexpressing prostate cancer mice: prostate weight, HE staining; format: in vivo, mouse; conditions: CRPC mice after drug resistance and recurrence; every three days for 30 days; ENZ 10 mg/Kg gavage, siRNA 100 nM tail vein injection
Experimental: as §1

[5] = system: LNCaP-DTP cells; assay: CCK8 cell survival, LNCaP-DTP cells; format: cell-based, human
Experimental: as §2, §3

[6] = system: GPX4 gene; assay: qRT-PCR relative expression of GPX4 gene after siGPX4 transfection, LNCaP and LNCaP-DTP cells; format: cell-based, human; conditions: for mRNA expression level of GPX4: LNCaP and drug-resistant LNCaP-DTP cells together; for Relative expression level of GPX4 gene: qRT-PCR; for interference activity on GPX4 gene expression (in words): drug-resistant or non-drug-resistant LNCaP cells and MyC-CaP cells
Experimental: (§4) To screen for suitable siRNAs, the interference activity of the siRNAs designed in Example 1 was determined. • S1. LNCaP and MyC-CaP cells were seeded at 1×10^6 in a 10 cm cell culture dish. On the second day, the cells were attached and then treated with 50 μM enzalutamide (ENZ) for 9 days, during which the medium was replaced with a fresh drug-containing medium (1640 medium containing 50 µM ENZ) for culture every three days. The cells were collected. After the treatment for 9 days, the cells were drug-resistant (DTP cells) and were labeled as LNCaP-DTP cells and MyC-CaP-DTP cells, respectively. • S2. LNCaP, MyC-CaP, and LNCaP-DTP and MyC-CaP-DTP cells as collected in S1, were seeded in a 6 cm dish and a 10 cm dish that contain fresh complete medium (1640 medium containing 10% fetal bovine serum and 1% […]), attached, and then transfected with siPRDX5 and siGPX4 designed in Example 1, and then mRNA and protein were extracted. • S3. RNA level and protein level were determined by qRT-PCR and Western Blot assays, and siRNAs with interference activity were screened and obtained.
(§5) The results are shown in FIG. 2 and FIG. 3 as well as Tables 1 and 2. Using the same method as in Example 2, LNCaP and MyC-CaP cells as well as their derived LNCaP-DTP and MyC-CaP-DTP cells were treated with the above modified siRNAs. […] It is also found to be more efficient in interfering with human cells compared to mice.

[7] = system: PRDX5 gene; assay: qRT-PCR relative expression of PRDX5 gene after siPRDX5 transfection, LNCaP and LNCaP-DTP cells; format: cell-based, human; conditions: for mRNA expression level of PRDX5: LNCaP and drug-resistant LNCaP-DTP cells together; for Relative expression level of PRDX5 gene: qRT-PCR
Experimental: as §4, §5

[8] = system: GPX4; assay: Western Blot / qRT-PCR expression of GPX4 after unmodified siGPX4; format: cell-based; conditions: unmodified siRNA; LNCaP and MyC-CaP cells (FIG. 1, FIG. 4)
Experimental: as §4

[9] = system: PRDX5; assay: Western Blot / qRT-PCR expression of PRDX5 after unmodified siPRDX5; format: cell-based; conditions: unmodified siRNA; LNCaP and MyC-CaP cells (FIG. 1, FIG. 4)
Experimental: as §4

Compound | mRNA expression level of GPX4 [6] | Relative expression level of GPX4 gene ([6]; LNCaP cells) | Relative expression level of GPX4 gene ([6]; LNCaP-DTP cells) | mRNA expression level of PRDX5 [7] | Relative expression level of PRDX5 gene ([7]; LNCaP cells) | Relative expression level of PRDX5 gene ([7]; LNCaP-DTP cells) | other results
CNC(=O)c1ccc(N2C(=S)N(c3ccc(C#N)c(C(F)(F)F)c3)C(=O)C2(C)C)cc1F [ENZ, Enzalutamide] |  |  |  |  |  |  | recurrence on continued administration ([1]; administration continued for 60 further days): recurrence; prostate weight compared to that of the NC control group ([1]; mice aged 4 months, 10 mg/Kg ENZ by gavage every three days for 30 days): reduced by half; growth inhibition (in words) [2]: no longer has a significant inhibitory effect; PRDX5 enzyme activity relative to NC group [3]: 4.56; Mean mouse prostate weight [4]: 66.67 mg; growth inhibition (in words) [5]: no longer has a significant inhibitory effect
#1-siGPX4: unmodified double-stranded siRNA against GPX4, SEQ ID NO. 11 and SEQ ID NO. 12 (chain 1 GUGAGGCAAGACCGAAGUAAACUAC; chain 2 GUAGUUUACUUCGGUCUUGCCUCACUG; unmodified RNA) | around 0.73 | 0.700 | 0.735 |  |  |  | 
#1-siPRDX5: unmodified double-stranded siRNA against PRDX5, SEQ ID NO. 7 and SEQ ID NO. 8 (chain 1 AGACAGACUUAUUACUAGAUGAUUC; chain 2 GAAUCAUCUAGUAAUAAGUCUGUCUCC; chain 1: all phosphodiester, sugars by position and methylation of C not given here; chain 2: unmodified RNA) |  |  |  | around 0.60 | 0.605 | 0.621 | 
#2-siGPX4: unmodified double-stranded siRNA against GPX4, SEQ ID NO. 13 and SEQ ID NO. 14 (chain 1 CUACAACGUCAAAUUCGAUAUGUUC; chain 2 GAACAUAUCGAAUUUGACGUUGUAGCC; chain 1: all phosphodiester, sugars by position not given here; chain 2: RNA, phosphodiester; further chemistry not fully specified) | around 0.73 | 0.730 | 0.755 |  |  |  | 
#2-siPRDX5: unmodified double-stranded siRNA against PRDX5, SEQ ID NO. 9 and SEQ ID NO. 10 (chain 1 GGCCAGAUUUCUGCAAUAAACACUU; chain 2 AAGUGUUUAUUGCAGAAAUCUGGCCAA; chain 1: all phosphodiester, sugars by position and methylation of C not given here; chain 2: unmodified RNA) |  |  |  | around 0.60 | 0.580 | 0.629 | 
#3-siGPX4: unmodified double-stranded siRNA against GPX4, SEQ ID NO. 3 and SEQ ID NO. 4 (chain 1 ACAACGUCAAAUUCGAUAUGU; chain 2 ACAUAUCGAAUUUGACGUUGUAC; unmodified RNA) | around 0.21 | 0.180 | 0.245 |  |  |  | expression of GPX4, including mRNA level and protein level [8]: substantially reducing the expression of GPX4; interference activity on GPX4 gene expression (in words) [6]: superior interference activity than the #4-siGPX4
#3-siPRDX5: unmodified double-stranded siRNA against PRDX5, SEQ ID NO. 1 and SEQ ID NO. 2 (chain 1 CAGACUUAUUACUAGAUGAUU; chain 2 AAUCAUCUAGUAAUAAGUCUGUC; unmodified RNA) |  |  |  | around 0.16 | 0.125 | 0.197 | interference activity on PRDX5 gene expression (in words) ([7]; drug-resistant or non-drug-resistant LNCaP cells and MyC-CaP cells): superior; expression of PRDX5, including mRNA level and protein level [9]: substantially reducing the expression of PRDX5
#4-siGPX4: unmodified double-stranded siRNA against GPX4, SEQ ID NO. 5 and SEQ ID NO. 6 (chain 1 GUGAGGCAAGACCGAAGUAAA; chain 2 UUUACUUCGGUCUUGCCUCACUG; unmodified RNA) | around 0.24 | 0.220 | 0.265 |  |  |  | expression of GPX4, including mRNA level and protein level [8]: substantially reducing the expression of GPX4; interference activity on GPX4 gene expression (in words) [6]: superior
